In publication PMC10698726 (Molecular Pharmaceutics, 2023):
Where two headings read alike, the source gives them in different places.

Legend:
OCT2 = target: T1, OCT2 (Homo sapiens, UniProt O15244); assay: Inhibition of model substrate uptake in OCT2-overexpressing HEK293 cells; conditions: 5 min; for inhibition at 5 min, 20 μM: human, OCT2-overexpressing HEK293 cells; for inhibition at 5 min, 20 μM / (S,S)-Ethambutol inhibition [%] / ASP+ inhibition [%] / N-Ethyllidocaine inhibition [%]: OCT2, 20 μM inhibitor
T1 sequence (O15244 1-555): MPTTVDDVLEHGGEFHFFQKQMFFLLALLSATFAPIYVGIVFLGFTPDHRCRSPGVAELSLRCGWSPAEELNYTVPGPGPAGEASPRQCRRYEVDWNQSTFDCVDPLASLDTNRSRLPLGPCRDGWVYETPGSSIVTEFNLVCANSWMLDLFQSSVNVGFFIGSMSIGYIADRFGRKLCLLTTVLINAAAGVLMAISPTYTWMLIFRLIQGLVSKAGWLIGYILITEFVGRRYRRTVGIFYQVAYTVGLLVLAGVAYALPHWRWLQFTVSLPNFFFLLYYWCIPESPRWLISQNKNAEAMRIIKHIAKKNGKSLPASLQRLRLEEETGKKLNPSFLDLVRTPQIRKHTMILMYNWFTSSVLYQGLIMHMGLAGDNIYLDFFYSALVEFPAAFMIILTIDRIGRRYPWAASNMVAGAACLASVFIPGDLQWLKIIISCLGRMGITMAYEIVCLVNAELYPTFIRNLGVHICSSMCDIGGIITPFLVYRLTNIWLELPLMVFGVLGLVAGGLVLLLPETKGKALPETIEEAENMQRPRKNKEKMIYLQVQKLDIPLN

OCT3 = target: T2, OCT3 (Homo sapiens, UniProt O75751); assay: Inhibition of model substrate uptake in OCT3-overexpressing HEK293 cells; type: cell-based; conditions: for inhibition at 20 µM / (S)-Zolmitriptan inhibition [%] / (S,S)-Ethambutol inhibition [%] / ASP+ inhibition [%]: 20 μM inhibitor; for (S)-Zolmitriptan inhibition [%] / (S,S)-Ethambutol inhibition [%] / ASP+ inhibition [%]: OCT3
T2 construct: expressed in transfected cells; host or cells: HEK293
T2 sequence (O75751 1-556): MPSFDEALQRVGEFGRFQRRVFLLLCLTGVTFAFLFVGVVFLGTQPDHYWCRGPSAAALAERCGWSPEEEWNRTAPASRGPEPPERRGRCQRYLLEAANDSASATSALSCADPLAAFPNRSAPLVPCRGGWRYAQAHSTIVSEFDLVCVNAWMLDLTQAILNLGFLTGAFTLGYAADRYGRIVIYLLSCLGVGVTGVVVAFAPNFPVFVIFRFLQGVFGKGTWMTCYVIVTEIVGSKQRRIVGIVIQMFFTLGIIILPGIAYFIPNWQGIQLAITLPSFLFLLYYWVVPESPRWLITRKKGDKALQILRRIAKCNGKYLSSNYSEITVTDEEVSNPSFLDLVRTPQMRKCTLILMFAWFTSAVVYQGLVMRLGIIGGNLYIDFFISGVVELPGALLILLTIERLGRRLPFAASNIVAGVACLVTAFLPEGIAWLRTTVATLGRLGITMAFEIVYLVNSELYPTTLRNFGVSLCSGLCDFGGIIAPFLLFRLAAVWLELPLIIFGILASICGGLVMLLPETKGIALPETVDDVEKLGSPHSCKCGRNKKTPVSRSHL
Summary of the method: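 IC50 values were fitted with a Hill equation from net uptake, calculated as uptake in overexpressing HEK293 cells minus empty-vector control uptake. Cells were exposed for 5 min to 2 μM model substrate alone, with 20 μM inhibitor, or with a concentration series. Uptake was quantified by ASP^+ fluorescence or LC–MS/MS after lysis in 80% acetonitrile.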

OCT1 = target: T3, OCT1 (Homo sapiens, UniProt O15245); assay: Inhibition of model substrate uptake in OCT1-overexpressing HEK293 cells; type: cell-based; design: expressed in transfected cells; host or cells: HEK293; conditions: 5 min; for inhibition at 5 min, 20 μM: human, OCT1-overexpressing HEK293 cells; for inhibition at 5 min, 20 μM / (S,S)-Ethambutol inhibition [%] / ASP+ inhibition [%] / Sumatriptan inhibition [%]: OCT1, 20 μM inhibitor
T3 sequence (O15245 1-554): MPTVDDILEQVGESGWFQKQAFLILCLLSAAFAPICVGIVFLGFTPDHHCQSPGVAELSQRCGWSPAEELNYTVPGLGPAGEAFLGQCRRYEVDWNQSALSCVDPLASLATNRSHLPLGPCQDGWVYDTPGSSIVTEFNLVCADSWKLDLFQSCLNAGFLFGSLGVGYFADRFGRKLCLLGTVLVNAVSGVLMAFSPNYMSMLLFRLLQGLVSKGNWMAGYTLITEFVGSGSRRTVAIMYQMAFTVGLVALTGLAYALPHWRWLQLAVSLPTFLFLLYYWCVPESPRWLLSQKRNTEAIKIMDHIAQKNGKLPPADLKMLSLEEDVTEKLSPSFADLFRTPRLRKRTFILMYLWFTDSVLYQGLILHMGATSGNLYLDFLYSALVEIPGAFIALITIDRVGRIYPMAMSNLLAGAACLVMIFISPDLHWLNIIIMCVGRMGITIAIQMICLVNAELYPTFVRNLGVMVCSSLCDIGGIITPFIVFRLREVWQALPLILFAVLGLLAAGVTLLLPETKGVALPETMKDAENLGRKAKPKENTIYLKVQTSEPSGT
Description: Koepsell and Gorbulev (University of Würzburg, Germany).
Fluorescence quantification was performed in technical duplicates.

[1] = pH 7.4, probe (S,S)-ethambutol (2 μM), (S,S)-Ethambutol inhibition [%], 2 μM (S,S)-ethambutol
[2] = pH 7.4, probe ASP+ (2 μM), ASP+ inhibition [%], 2 μM ASP+
[3] = pH 7.4, probe N-ethyllidocaine (2 μM), N-Ethyllidocaine inhibition [%], 2 μM N-ethyllidocaine
[4] = HEK293, 5 min, read-out: (S)-Zolmitriptan inhibition [%], OCT3, 2 μM (S)-zolmitriptan, 5 min
[5] = HEK293, 5 min, read-out: (S,S)-Ethambutol inhibition [%], OCT3, 2 μM (S,S)-ethambutol, 5 min
[6] = HEK293, OCT3, 2 μM ASP+, 5 min, read-out: ASP+ inhibition [%]
[7] = pH 7.4, probe ASP+ (2 μM), 2 μM ASP+, mean of three experiments, read-out: ASP+ inhibition [%]
[8] = pH 7.4, probe sumatriptan (2 μM), 2 μM sumatriptan, read-out: Sumatriptan inhibition [%]
[9] = 2 μM ASP+, mean of three experiments

SMILES	inhibition at 5 min, 20 μM (OCT2; [1]) [%]	inhibition at 5 min, 20 μM (OCT2; [2]) [%]	inhibition at 5 min, 20 μM (OCT2; [3]) [%]	inhibition at 20 µM (OCT3; [4]) [%]	inhibition at 20 µM (OCT3; [5]) [%]	inhibition at 20 µM (OCT3; [6]) [%]	inhibition at 5 min, 20 μM (OCT1; [1]) [%]	inhibition at 5 min, 20 μM (OCT1; [7]) [%]	inhibition at 5 min, 20 μM (OCT1; [8]) [%]	(S,S)-Ethambutol inhibition [%] (OCT2; 2 μM (S,S)-ethambutol)	ASP+ inhibition [%] (OCT2; 2 μM ASP+)	N-Ethyllidocaine inhibition [%] (OCT2; 2 μM N-ethyllidocaine)	(S)-Zolmitriptan inhibition [%] (OCT3; 2 μM (S)-zolmitriptan, 5 min)	(S,S)-Ethambutol inhibition [%] (OCT3; 2 μM (S,S)-ethambutol, 5 min)	ASP+ inhibition [%] (OCT3; 2 μM ASP+, 5 min)	(S,S)-Ethambutol inhibition [%] (OCT1; 2 μM (S,S)-ethambutol)	ASP+ inhibition [%] (OCT1; [9])	Sumatriptan inhibition [%] (OCT1; 2 μM sumatriptan)	also measured
CC(C)Cc1ccc([C@H](C)C(=O)O)cc1 [(S)-Ibuprofen]	14.5	10.9	10.4	-0.8	11.3	12.9	-10.6	8.8	-3.4										
Cc1cccc(C)c1OC[C@H](C)N [(S)-Mexiletine]	58.7	52.9	51.3	30	11.8	-6.6	78	40.1	84.3										
NC[C@@H](O)c1ccc(O)c(O)c1 [(S)-Norepinephrine]										5.1	20.5	7.1	-6.6	12.5	-3.5	6.1	-3.3	6.6	

Second part, led by results:

inhibition at 5 min, 20 μM (OCT2; [1]) [%]	inhibition at 5 min, 20 μM (OCT2; [2]) [%]	inhibition at 5 min, 20 μM (OCT2; [3]) [%]	inhibition at 20 µM (OCT3; [4]) [%]	inhibition at 20 µM (OCT3; [5]) [%]	inhibition at 20 µM (OCT3; [6]) [%]	inhibition at 5 min, 20 μM (OCT1; [1]) [%]	inhibition at 5 min, 20 μM (OCT1; [7]) [%]	inhibition at 5 min, 20 μM (OCT1; [8]) [%]	(S,S)-Ethambutol inhibition [%] (OCT2; 2 μM (S,S)-ethambutol)	ASP+ inhibition [%] (OCT2; 2 μM ASP+)	N-Ethyllidocaine inhibition [%] (OCT2; 2 μM N-ethyllidocaine)	(S)-Zolmitriptan inhibition [%] (OCT3; 2 μM (S)-zolmitriptan, 5 min)	(S,S)-Ethambutol inhibition [%] (OCT3; 2 μM (S,S)-ethambutol, 5 min)	ASP+ inhibition [%] (OCT3; 2 μM ASP+, 5 min)	(S,S)-Ethambutol inhibition [%] (OCT1; 2 μM (S,S)-ethambutol)	ASP+ inhibition [%] (OCT1; [9])	Sumatriptan inhibition [%] (OCT1; 2 μM sumatriptan)	SMILES	also measured
									24.5	92.8	48.6	65.2	75.7	40.5	96.3	59.3	83.5	CCN(CC)CC#CCOC(=O)[C@@](O)(c1ccccc1)C1CCCCC1 [(S)-Oxybutynine]	IC50 (OCT2; IC50, OCT2, Table S5, 2 μM ASP+ as model substrate): 20.1 µM; IC50 (OCT3; IC50, OCT3, Table S5, 2 μM ASP+ or ethambutol as model substrate, 5 min): 40 µM; IC50 (OCT1; IC50, OCT1, Table S5, 2 μM ASP+ or ethambutol as model substrate): 141 µM
5.5	5.4	-2.7	-3.9	5.6	2.7	6.2	5.2	-5.1										CNC[C@@H](O)c1cccc(O)c1 [(S)-Phenylephrine]	
									28.4	57.3	32.4	38.2	32.0	-2.9	74.3	40.6	82.8	CC(C)NC[C@H](O)COc1cccc2ccccc12 [(S)-Propranolol]	IC50 (OCT3; OCT3, Table 1, read-out: IC50): 69 µM
